# Measurements published in patent US11214578B2, “Urea/carbamates FAAH MAGL or dual FAAH/MAGL inhibitors and uses thereof” (Northeastern University, priority 2014, dated 2022).
# Tests used:
# Assay type in all cases: biochemical
# ΔTM rat FAAH = target: T1, ΔTM rat FAAH (Rattus norvegicus, UniProt P97612); assay: Fluorescent assay protocol for ΔTM rat FAAH (AAMCA substrate); conditions: 15 min preincubation, read-out: IC50 rFAAH
# T1 construct: Preparation of Transmembrane Domain-Deleted Rat FAAH (ΔTM rFAAH); made in house; host or cells: E. coli
# T1 sequence (P97612 30-579 limits assumed): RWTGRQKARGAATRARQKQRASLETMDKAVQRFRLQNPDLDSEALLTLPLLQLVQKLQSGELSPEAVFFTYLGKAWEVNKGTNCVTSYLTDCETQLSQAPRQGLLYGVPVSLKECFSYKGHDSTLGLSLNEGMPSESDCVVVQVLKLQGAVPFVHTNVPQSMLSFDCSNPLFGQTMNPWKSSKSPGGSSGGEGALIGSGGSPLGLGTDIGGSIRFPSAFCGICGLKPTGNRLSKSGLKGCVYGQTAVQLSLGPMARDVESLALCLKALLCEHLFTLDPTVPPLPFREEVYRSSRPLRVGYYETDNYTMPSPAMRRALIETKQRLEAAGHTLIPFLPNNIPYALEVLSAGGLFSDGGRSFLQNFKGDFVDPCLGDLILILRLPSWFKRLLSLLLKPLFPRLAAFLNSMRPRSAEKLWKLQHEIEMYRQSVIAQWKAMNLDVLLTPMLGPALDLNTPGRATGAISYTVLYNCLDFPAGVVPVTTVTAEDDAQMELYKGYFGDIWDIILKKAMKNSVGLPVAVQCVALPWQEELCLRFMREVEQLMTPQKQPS
# Procedure: Procedure was followed as described for hMAGL, except that arachidonoyl-methyl coumarin amide (AAMCA) was used as fluorigenic substrate. […] For the screening assay, 3 concentrations (1 μM, 10 μM, and 100 μM) of test compounds, 15 μg of ΔTM rFAAH and assay buffer were pre-incubated for 15 min at 25° C. […] The fluorescence reading at the 3 hour time point (linear enzyme kinetics) was used to calculate percent inhibition based on control assays without inhibitor present. All FAAH assays were performed in triplicate for each inhibitor concentration, and IC50 values determined using Prizm software (GraphPad Software, Inc.).
# Human FAAH (MBPΔTMhFAAH) = target: T2, Human FAAH (MBPΔTMhFAAH) (Homo sapiens, UniProt O00519); assay: Fluorescent assay protocol for hFAAH; conditions: human FAAH (MBP fusion, ΔTM), procedure as for rFAAH
# T2 construct: made in house; host or cells: E. coli (pMALcE4 vector)
# T2 sequence (O00519 30-579 limits assumed): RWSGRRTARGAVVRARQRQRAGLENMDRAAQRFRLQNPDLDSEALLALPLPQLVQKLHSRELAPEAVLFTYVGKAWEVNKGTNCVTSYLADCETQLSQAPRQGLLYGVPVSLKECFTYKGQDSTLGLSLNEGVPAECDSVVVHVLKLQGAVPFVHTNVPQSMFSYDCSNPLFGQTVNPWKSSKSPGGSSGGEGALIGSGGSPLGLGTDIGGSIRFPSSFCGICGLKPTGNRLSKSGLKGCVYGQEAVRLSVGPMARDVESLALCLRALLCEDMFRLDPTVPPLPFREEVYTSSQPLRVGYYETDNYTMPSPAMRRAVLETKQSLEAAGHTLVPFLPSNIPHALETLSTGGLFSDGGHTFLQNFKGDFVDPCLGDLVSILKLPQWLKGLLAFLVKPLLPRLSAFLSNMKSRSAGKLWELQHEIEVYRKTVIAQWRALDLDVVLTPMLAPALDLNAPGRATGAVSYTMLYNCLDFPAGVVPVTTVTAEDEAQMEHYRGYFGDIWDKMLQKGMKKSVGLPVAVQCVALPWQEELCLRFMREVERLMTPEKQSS
# Procedure: Human FAAH without putative transmembrane domain following maltose binding protein was expressed in E. coli cells using pMALcE4 vector Alapafuja et al J. Med. Chem. (2012) 55: 10074-89.
# Procedure was followed as described for hMAGL, except that arachidonoyl-methyl coumarin amide (AAMCA) was used as fluorigenic substrate. Compounds were diluted in 50:50 DMSO/assay buffer (50 mM HEPES, 1 mM EDTA, 0.1% BSA, pH 7.4) so as to have a final DMSO concentration below 8% in each reaction. For the screening assay, 3 concentrations (1 μM, 10 μM, and 100 μM) of test compounds, 15 μg of ΔTM rFAAH and assay buffer were pre-incubated for 15 min at 25° C. AAMCA (20 μM, 2×Km) was added prior to incubation at 25° C. and kinetic fluorescence reading every 20 minutes (λex=360/λem=460) for 4 hours on a BioTek Synergy HT Microplate Reader (BioTek Instruments, Winooski, Vt.). The fluorescence reading at the 3 hour time point (linear enzyme kinetics) was used to calculate percent inhibition based on control assays without inhibitor present. All FAAH assays were performed in triplicate for each inhibitor concentration, and IC50 values determined using Prizm software (GraphPad Software, Inc.).
# Procedure was followed as described for rFAAH.
# Rat MAGL (rMAGL) = target: T3, Rat MAGL (rMAGL) (Rattus norvegicus, UniProt Q8R431); assay: Fluorescent assay protocol for rMAGL; conditions: recombinant rat MAGL, procedure as for hMAGL; read-out: IC50 rMAGL
# T3 construct: made in house; host or cells: E. coli
# T3 sequence (Q8R431 1-303): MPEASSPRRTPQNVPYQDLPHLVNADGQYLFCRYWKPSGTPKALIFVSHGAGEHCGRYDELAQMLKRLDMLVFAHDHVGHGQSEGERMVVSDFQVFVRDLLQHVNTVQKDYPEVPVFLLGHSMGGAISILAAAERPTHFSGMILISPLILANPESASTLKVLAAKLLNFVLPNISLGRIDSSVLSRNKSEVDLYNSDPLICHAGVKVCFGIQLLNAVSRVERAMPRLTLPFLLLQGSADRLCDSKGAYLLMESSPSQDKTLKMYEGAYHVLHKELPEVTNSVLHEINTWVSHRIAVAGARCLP
# Procedure: (§1) This medium throughput assay involved a 96-well plate format in which hMAGL activity was monitored by the hydrolysis of the substrate 7-hydroxy-6-methoxy-4-methylcoumarin ester (AHMMCE) to form the fluorescent product, coumarin. […] Upon the addition of AHMMCE, the reaction was incubated at 25° C. for 120 min; fluorescence readings were taken every 15 min at 360 nm/460 nm (λexcitation/λemission) using a Synergy HT Plate Reader (Bio-Tek, Winooski, Vt.). […] External standards were used to convert relative fluorescence units to the amount of 4-methylcoumarin formed. All MAGL assays were performed in triplicate for each inhibitor concentration, and IC50 values were calculated using Prizm software (GraphPad Software, Inc., San Diego, Calif.).
# Procedure was followed as described for hMAGL.
# Human MAGL (hMAGL) = target: T4, Human MAGL (hMAGL) (Homo sapiens, UniProt Q99685); assay: Fluorescent assay protocol for hMAGL (AHMMCE substrate); conditions: recombinant human MAGL, AHMMCE substrate, 15 min preincubation; read-out: IC50 hMAGL
# T4 construct: hexahistidine; made in house; host or cells: E. coli
# T4 sequence (Q99685 1-303): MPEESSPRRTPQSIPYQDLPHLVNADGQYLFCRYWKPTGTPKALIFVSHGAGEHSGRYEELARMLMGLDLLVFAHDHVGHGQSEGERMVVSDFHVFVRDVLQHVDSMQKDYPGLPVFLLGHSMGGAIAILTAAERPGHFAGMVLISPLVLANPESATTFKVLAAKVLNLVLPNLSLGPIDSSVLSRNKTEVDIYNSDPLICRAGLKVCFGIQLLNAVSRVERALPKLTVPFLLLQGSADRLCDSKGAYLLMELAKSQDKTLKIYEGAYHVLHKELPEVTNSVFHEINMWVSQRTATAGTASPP
# Procedure: as §1
Compound,IC50 (ΔTM rat FAAH),IC50 (Human FAAH (MBPΔTMhFAAH)),IC50 (Rat MAGL (rMAGL)),IC50 (Human MAGL (hMAGL))
6-Chloropyridin-2-yl 4-(benzhydryl)piperidine-1-carboxylate [Example 51],0.01 to 0.1 µM,0.01 to 0.1 µM,> 1 µM,> 1 µM
"C[C@@H]1CN(C(=O)Nc2cccc(-c3cccc(C(N)=O)c3)c2)CCN1Cc1ccc2ccccc2n1 [Example 2, (R)—N-(3′-carbamoyl-[1,1′-biphenyl]-3-yl)-3-methyl-4-(quinolin-2-ylmethyl)piperazine-1-carboxamide]",0.11 to 1 µM,> 1 µM,> 1 µM,> 1 µM
"C[C@H]1CN(Cc2cccc(Oc3ccccc3)c2)CCN1C(=O)Nc1cccc(-c2cccc(C(N)=O)c2)c1 [Example 4, (S)—N-(3′-carbamoyl-[1,1′-biphenyl]-3-yl)-2-methyl-4-(3-phenoxybenzyl)piperazine-1-carboxamide]",0.01 to 0.1 µM,0.01 to 0.1 µM,> 1 µM,> 1 µM
"C[C@H]1CN(Cc2cccc(Oc3ccccc3)c2)CCN1C(=O)Nc1cncc(-c2cccc(C#N)c2)c1 [Example 5, (S)—N-(5-(3-cyanophenyl)pyridin-3-yl)-2-methyl-4-(3-phenoxybenzyl)piperazine-1-carboxamide]",> 1 µM,> 1 µM,> 1 µM,> 1 µM
"NC(=O)c1cccc(-c2cccc(NC(=O)N3CCN(Cc4cnc5ccccc5c4)CC3)c2)c1 [Example 6, N-(3′-carbamoyl-[1,1′-biphenyl]-3-yl)-4-(quinolin-3-ylmethyl)piperazine-1-carboxamide]",0.01 to 0.1 µM,0.01 to 0.1 µM,0.11 to 1 µM,0.11 to 1 µM
"NC(=O)c1cccc(-c2cccc(NC(=O)N3CCN(C4c5ccccc5-c5ccccc54)CC3)c2)c1 [Example 8, N-(3′-carbamoyl-[1,1′-biphenyl]-3-yl)-4-(9H-fluoren-9-yl)piperazine-1-carboxamide]",0.01 to 0.1 µM,0.01 to 0.1 µM,> 1 µM,> 1 µM
"NC(=O)c1cccc(-c2cccc(NC(=O)N3CCN(c4ccccn4)CC3)c2)c1 [Example 9, N-(3′-carbamoyl-[1,1′-biphenyl]-3-yl)-4-(pyridin-2-yl)piperazine-1-carboxamide]",0.01 to 0.1 µM,0.01 to 0.1 µM,> 1 µM,> 1 µM
"NC(=O)c1cccc(-c2cccc(NC(=O)N3CCN(Cc4ccc(-c5ccccc5)cc4)CC3)c2)c1 [Example 10, 4-([1,1′-biphenyl]-4-ylmethyl)-N-(3′-carbamoyl-[1,1′-biphenyl]-3-yl)piperazine-1-carboxamide]",0.01 to 0.1 µM,0.01 to 0.1 µM,> 1 µM,> 1 µM
"NC(=O)c1cccc(-c2cccc(NC(=O)N3CCN(c4ccccc4)CC3)c2)c1 [Example 11, N-(3′-carbamoyl-[1,1′-biphenyl]-3-yl)-4-phenylpiperazine-1-carboxamide]",0.01 to 0.1 µM,0.01 to 0.1 µM,> 1 µM,> 1 µM
"NC(=O)c1cccc(-c2cccc(NC(=O)N3CCN(Cc4ccc5ccccc5n4)CC3)c2)c1 [Example 12, N-(3′-carbamoyl-[1,1′-biphenyl]-3-yl)-4-(quinolin-2-ylmethyl)piperazine-1-carboxamide]",0.01 to 0.1 µM,0.01 to 0.1 µM,> 1 µM,> 1 µM
"CC(C)C(c1ccccc1)N1CCN(C(=O)Oc2cccc(C#N)c2)CC1 (stereo not drawn) [Example 35, 3-Cyanophenyl 4-(2-methyl-1-phenylpropyl)piperazine-1-carboxylate]",> 1 µM,> 1 µM,–,> 1 µM
"N#Cc1cccc(OC(=O)N2CCN(C(c3ccccc3)C3CCCC3)CC2)c1 (stereo not drawn) [Example 37, 3-cyanophenyl 4-(cyclopentyl(phenyl)methyl)piperazine-1-carboxylate]",0.01 to 0.1 µM,0.01 to 0.1 µM,–,–
"N#Cc1cccc(OC(=O)N2CCN(C(c3ccc(F)cc3)c3ccc(F)cc3)CC2)c1 [Example 40, 3-cyanophenyl 4-(bis(4-fluorophenyl)methyl)piperazine-1-carboxylate]",> 1 µM,> 1 µM,–,–
"N#Cc1cccc(OC(=O)N2CCN(C3c4ccccc4-c4ccccc43)CC2)c1 [Example 41, 3-cyanophenyl 4-(9H-fluoren-9-yl)piperazine-1-carboxylate]",0.11 to 1 µM,0.11 to 1 µM,–,–
"N#Cc1cccc(OC(=O)N2CCN(C(c3ccccc3)c3ccccc3)CC2)c1 [Example 44, 3-Cyanophenyl 4-benzhydrylpiperazine-1-carboxylate]",0.01 to 0.1 µM,0.01 to 0.1 µM,–,–
"N#Cc1ccc(F)c(OC(=O)N2CCC(C(c3ccccc3)c3ccccc3)CC2)c1 [Example 49, 5-cyano-2-fluorophenyl 4-benzhydrylpiperidine-1-carboxylate]",> 1 µM,> 1 µM,–,–
"N#Cc1cc(O)cc(OC(=O)N2CCC(C(c3ccccc3)c3ccccc3)CC2)c1 [Example 50, 3-cyano-5-hydroxyphenyl 4-benzhydrylpiperidine-1-carboxylate]",> 1 µM,> 1 µM,–,–
"N#Cc1cccc(OC(=O)N2CCC(OC(c3ccccc3)c3ccccc3)CC2)c1 [Example 58, 3-cyanophenyl 4-(benzhydryloxy)piperidine-1-carboxylate]",> 1 µM,> 1 µM,–,–
